Results taken from patent US10154974B1, “Use of abscisic acid for the prevention and treatment of malaria” (The Regents of the University of California, priority 2015, dated 2018).

Legend:
P. yoelii 17XNL = P. yoelii 17XNL parasitemia in C57Bl/6 and casp1-/- mice; type: in vivo
Experimental: Daily parasitemia of three separate cohorts of mice with and without ABA supplementation. 3 to 5 mice were used per treatment in each infection. Data were analyzed by one-sided, unpaired t-test. # p<0.1, * p<0.05, ** p<0.005.
FIG. 28A-B illustrate that ABA has no effect on parasitemia in caspase-1 knockout mice. […] 4-5 mice were used per treatment group. Data were analyzed by unpaired t-test. # p<0.1 * p<0.05.

P. falciparum = experiment: Pfs16 and Pfs25 expression in parasite-fed mosquito midguts (parasite death); type: in vivo; conditions: between 18 and 24 hours post-bloodmeal
Experimental: Expression levels are shown of P. falciparum genes Pfs16 and Pfs25 in ABA-supplemented parasite-fed mosquito midguts. Data are normalized to mosquito and parasite ribosomal genes s7 and A18s. Each dot represents one replicate of 10 pooled midguts. Data are shown as fold change relative to control and were analyzed by one sample t-test. * p<0.05.

ILP3 and ILP4 = experiment: Insulin-like peptide mRNA levels in mosquito midgut; type: in vivo, Anopheles stephensi; conditions: P. falciparum-fed mosquitoes
Experimental: FIG. 14A-B illustrate that ABA reduces insulin-like peptide expression in the midgut. Specifically, mRNA levels are shown of ILP3 (FIG. 14A) and ILP4 (FIG. 14B) in ABA-treated, P. falciparum-fed mosquito midguts. Data are shown as fold change compared to control-treated mosquitoes. Each dot represents one replicate of 10 pooled midguts. Data were analyzed by one sample t-test. * p<0.05.

liver = experiment: Liver histology scoring; type: in vivo, mice
Experimental: (§1) Mice were euthanized on day 7 post-infection. Blood was collected by heart puncture, spun at 8,000 rpm for 8 minutes and the plasma collected for ABA quantification. Livers and spleens were collected, retained in 10% formalin for 24 hours and then stored in 70% ethanol before sectioning and staining with hematoxylin and eosin. Liver sections were blindly scored on a scale from 0 to 3 for pigment levels, Kupffer cell density, portal tract inflammation, hemozoin deposition, extramedullary hematopoiesis, sinusoidal leukocyte density, sinusoidal adherence of leukocytes, and presence of microabscesses. Spleen sections were blindly scored on a scale from 0 to 3 for hyperplasia, extramedullary hematopoiesis, pigment, and levels of histiocytes and neutrophils. Pathology scores of control and treated mice were analyzed by unpaired t-test.

spleen = experiment: Spleen histology scoring; type: in vivo; conditions: P. yoelii-infected mice
Experimental: as §1

[1] = test system: nitric oxide synthase (NOS); experiment: NOS transcript levels in mouse liver and spleen; type: in vivo, mice; conditions: day 7 of infection
Experimental: For mosquito immune gene expression, 20 midguts were dissected from mosquitoes in each treatment group at 1, 2, 4, 6, 8 and 24 hours post-feeding. Midguts were sonicated and stored in Trizol at −20° C. for up to a week before RNA was extracted according to manufacturer's instructions. cDNA synthesis was carried out using QantiTect Reverse Transcription Kit (Qiagen) and 200 ng of cDNA used per reaction for qRT-PCR with Sybr Green (Applied Biosystems). Fold changes in expression levels were calculated using the comparative threshold cycle method. Data were normalized to the housekeeping gene ribosomal protein S7 and to the control treatment. Primers and cycling conditions for AsNOS, defensin, LRIM, TEP1, and APL1 were as previously described (Hauck E S, et al. Microbes Infect. 2013; 15:775-87). For gene expression analysis of mouse liver and spleen, organs were flash frozen after necropsy and stored at −80° C. before RNA was extracted in Trizol and cDNA synthesized. Real-time PCR was performed using TaqMan probe-based expression assays for mouse NOS2, PPARγ (Mm00440940), and β-actin (Applied Biosystems) with volumes and cycling conditions as previously described (Chau et al., Infect Immun, 2013, 81:3515-26). Samples were analyzed in triplicate with 250 ng of cDNA per reaction to confirm uniformity of amplification. […] All expression data were analyzed by one sample t-test.

[2] = test system: cytokine and immune-regulators; experiment: Cytokine and immune-regulator mRNA in spleen and liver; type: in vivo; conditions: CD1 mice, day 4 and 7 post-infection
Experimental: FIG. 23A-B illustrate that ABA supplementation alters cytokine expression in the spleen and liver of infected mice consistent with enhanced IgG production and inflammasome activation. Shown are mRNA levels of cytokine and immune-regulators in the spleen (FIG. 23A) and liver (FIG. 23B) of control and ABA-supplemented CD1 mice on day 4 and 7 post-infection with P. yoelii 17XNL. Data are shown as −Δct, normalized to β-actin and were analyzed by unpaired t-test. # p<0.1 * p<0.05 ** p<0.01.

[3] = Whole liver and spleen weights; type: in vivo, mice; conditions: day 9 post-infection with P. yoelii 17XNL
Experimental: FIG. 20A-C illustrate that ABA supplemented mice have reduced hepatosplenomegaly and evidence of improved liver function. Shown are weights of whole liver (FIG. 20A) and spleen (FIG. 20B) from control and ABA-supplemented mice on day 9 post-infection with P. yoelii 17XNL. Also shown are blood urea nitrogen levels (FIG. 20C) in plasma of uninfected and P. yoelii-infected, control and ABA-supplemented mice on day 11 post-infection. Data were analyzed by unpaired t-test.

[4] = infected mice, day 7 post-infection

## CC1=CC(=O)CC(C)(C)[C@@]1(O)/C=C/C(C)=C\C(=O)O (racemic) [ABA, (2Z,4E)-5-[(1S)-1-hydroxy-2,6,6-trimethyl-4-oxocyclohex-2-en-1-yl]-3-methylpenta-2,4-dienoic acid]
P. yoelii 17XNL; C57Bl/6 mice, three cohorts
  parasitemia: significantly reduces
P. yoelii 17XNL; caspase-1 knockout mice
  parasitemia: no effect
P. falciparum
  parasite death in mosquito midgut (Pfs16 and Pfs25 expression): increased parasite death
ILP3 and ILP4
  insulin-like peptide expression: reduces
liver; absence of infection
  number of sinusoidal leukocytes in the liver: decreased
liver; [4]
  adhered leukocytes in the liver: fewer
  microabscesses in the liver: fewer
liver; liver, P. yoelii-infected mice
  hemozoin deposition, pigment, portal tract inflammation, extramedullary hematopoeisis, Kupffer cell density: not altered
spleen
  histiocyte density, pigment deposition, extramedullary hematopoiesis in the spleen: not altered
  lymphoid hyperplasia of the spleen: reduced
[1]
  transcript levels of nitric oxide synthase (NOS): decreased
[2]
  cytokine expression in the spleen and liver: alters
[3]
  hepatosplenomegaly (weights of whole liver and spleen): reduced
